According to patent EP4741392A1, “1H-PYRAZOLO[4,3-C]PYRIDINE COMPOUND, AND COMPOSITION THEREOF AND USE THEREOF” (Shenzhen TargetRx Co., Ltd., priority 2023, dated 2025):

Columns and labels:
Format in all cases: biochemical
BTK C481S = target: T1, BTK C481S (Homo sapiens, UniProt Q06187, C481S); assay: Kinase activity inhibition assay (HTRF TK Kit)
T1 construct: purchased Carna 08-547
Method in brief: (§1)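 HTRF TK assay set up on ice: compound, then biotinylated substrate plus ATP, then kinase, reacted at room temperature; streptavidin-XL665 and TK antibody-cryptate added for 1 h. The 665/620 nm ratio gave % inhibition versus no-kinase blank and kinase-plus-1% DMSO controls; IC50 from four-parameter nonlinear fit.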

BTK T474I = target: T2, BTK T474I (Homo sapiens, UniProt Q06187, T474I); assay: Kinase activity inhibition assay (HTRF TK Kit)
T2 construct: purchased SignalChem B10-12HH
Method in brief: as §1

BTK kinase = target: T3, BTK kinase (Homo sapiens, UniProt Q06187); assay: Kinase activity inhibition assay (HTRF TK Kit)
T3 construct: purchased Invitrogen PV3587
Method in brief: as §1

EGFR = target: T4, EGFR (Homo sapiens, UniProt P00533); assay: Kinase activity inhibition assay (HTRF TK Kit), selectivity
T4 construct: purchased Carna 08-115
Method in brief: as §1

ITK = target: T5, ITK (Homo sapiens, UniProt Q08881); assay: as above
T5 construct: purchased Carna 08-181
T5 sequence (Q08881 1-620): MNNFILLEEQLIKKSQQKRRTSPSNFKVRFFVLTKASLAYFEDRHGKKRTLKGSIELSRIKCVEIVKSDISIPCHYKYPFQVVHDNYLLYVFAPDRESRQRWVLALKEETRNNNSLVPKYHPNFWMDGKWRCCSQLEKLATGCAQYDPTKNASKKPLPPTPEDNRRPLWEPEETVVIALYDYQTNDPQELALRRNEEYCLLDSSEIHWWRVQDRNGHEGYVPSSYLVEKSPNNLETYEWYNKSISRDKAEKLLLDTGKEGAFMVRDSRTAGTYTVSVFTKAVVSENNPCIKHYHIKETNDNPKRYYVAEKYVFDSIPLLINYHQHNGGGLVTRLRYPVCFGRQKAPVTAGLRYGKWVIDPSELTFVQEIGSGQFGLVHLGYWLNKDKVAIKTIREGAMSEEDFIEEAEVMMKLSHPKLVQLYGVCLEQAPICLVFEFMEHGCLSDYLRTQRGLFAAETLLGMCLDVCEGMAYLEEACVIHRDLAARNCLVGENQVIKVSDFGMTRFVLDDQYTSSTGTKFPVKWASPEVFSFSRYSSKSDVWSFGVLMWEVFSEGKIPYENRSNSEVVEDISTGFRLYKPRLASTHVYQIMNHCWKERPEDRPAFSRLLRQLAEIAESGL
Method in brief: as §1

TEC = target: T6, TEC (Homo sapiens, UniProt P42680); assay: as above
T6 construct: purchased Carna 08-182
T6 sequence (P42680 1-631): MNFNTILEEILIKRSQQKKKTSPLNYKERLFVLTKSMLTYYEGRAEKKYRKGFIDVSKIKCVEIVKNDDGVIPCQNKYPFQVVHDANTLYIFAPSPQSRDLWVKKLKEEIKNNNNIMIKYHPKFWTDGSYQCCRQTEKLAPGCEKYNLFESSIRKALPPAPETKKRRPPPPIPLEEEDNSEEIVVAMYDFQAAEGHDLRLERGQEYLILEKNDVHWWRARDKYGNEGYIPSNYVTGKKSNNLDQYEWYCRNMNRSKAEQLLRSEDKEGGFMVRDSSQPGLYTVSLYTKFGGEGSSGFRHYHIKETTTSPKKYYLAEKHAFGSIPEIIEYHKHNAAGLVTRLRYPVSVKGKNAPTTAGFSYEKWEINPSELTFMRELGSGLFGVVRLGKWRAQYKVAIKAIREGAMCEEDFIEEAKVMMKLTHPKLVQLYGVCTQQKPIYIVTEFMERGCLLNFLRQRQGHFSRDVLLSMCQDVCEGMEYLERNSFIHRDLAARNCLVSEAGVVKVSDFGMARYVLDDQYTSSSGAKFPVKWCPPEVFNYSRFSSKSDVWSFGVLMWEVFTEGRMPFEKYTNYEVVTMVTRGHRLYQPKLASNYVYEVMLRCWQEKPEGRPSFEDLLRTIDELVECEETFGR
Method in brief: as §1

T3 sequence (Q06187 whole entry): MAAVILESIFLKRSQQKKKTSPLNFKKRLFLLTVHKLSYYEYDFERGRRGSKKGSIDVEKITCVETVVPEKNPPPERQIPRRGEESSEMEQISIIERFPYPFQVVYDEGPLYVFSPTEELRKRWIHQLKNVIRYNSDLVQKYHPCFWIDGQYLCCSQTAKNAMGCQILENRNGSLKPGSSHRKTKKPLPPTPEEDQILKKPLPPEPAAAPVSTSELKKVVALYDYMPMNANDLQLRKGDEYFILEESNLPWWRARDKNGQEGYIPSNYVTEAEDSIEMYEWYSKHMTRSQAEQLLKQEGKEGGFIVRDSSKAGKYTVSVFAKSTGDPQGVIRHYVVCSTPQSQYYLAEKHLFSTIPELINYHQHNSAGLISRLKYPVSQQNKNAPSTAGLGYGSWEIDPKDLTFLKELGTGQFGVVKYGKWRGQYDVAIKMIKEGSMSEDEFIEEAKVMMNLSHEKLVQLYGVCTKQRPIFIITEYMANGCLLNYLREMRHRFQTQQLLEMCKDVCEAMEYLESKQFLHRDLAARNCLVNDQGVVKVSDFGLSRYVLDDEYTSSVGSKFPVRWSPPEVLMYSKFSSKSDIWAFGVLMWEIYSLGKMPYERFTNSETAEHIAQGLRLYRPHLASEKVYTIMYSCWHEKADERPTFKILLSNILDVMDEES
T4 sequence (P00533 669-1210 limits assumed): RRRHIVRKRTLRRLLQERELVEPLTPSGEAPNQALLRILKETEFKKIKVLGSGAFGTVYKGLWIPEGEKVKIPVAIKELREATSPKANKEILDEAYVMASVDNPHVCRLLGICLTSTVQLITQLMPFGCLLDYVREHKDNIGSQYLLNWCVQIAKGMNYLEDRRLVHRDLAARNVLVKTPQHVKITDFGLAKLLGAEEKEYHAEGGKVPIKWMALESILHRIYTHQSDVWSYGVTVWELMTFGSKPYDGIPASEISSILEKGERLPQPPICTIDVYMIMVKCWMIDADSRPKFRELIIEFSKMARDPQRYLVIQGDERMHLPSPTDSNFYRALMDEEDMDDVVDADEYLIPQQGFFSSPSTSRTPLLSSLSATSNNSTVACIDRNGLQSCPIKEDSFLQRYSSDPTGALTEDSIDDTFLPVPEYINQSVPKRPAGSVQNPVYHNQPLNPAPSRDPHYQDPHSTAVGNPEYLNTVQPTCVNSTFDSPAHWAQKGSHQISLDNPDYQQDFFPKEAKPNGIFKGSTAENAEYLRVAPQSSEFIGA
T1 sequence (Q06187 whole entry C481S): as the sequence (Q06187 whole entry) above, with C481S counted along it
T2 sequence (Q06187 whole entry T474I): as the sequence (Q06187 whole entry) above, with T474I counted along it

SMILES | IC50 (BTK C481S) | IC50 (BTK T474I) | IC50 (BTK kinase) | IC50 (EGFR) | IC50 (ITK) | IC50 (TEC)
COc1ccc(F)cc1C(=O)NCc1ccc(-c2ncc(-c3nc4ccccc4s3)c3[nH]nc(N)c23)cc1 [Example 99, N-(4-(3-amino-7-(benzo[d]thiazol-2-yl)-1H-pyrazolo[4,3-c]pyridin-4-yl)benzyl)-5-fluoro-2-methoxybenzamide] | 5 to 50 nM | 50 to 500 nM | 5 to 50 nM | 50 to 500 nM | > 500 nM | 5 to 50 nM
COc1ccc(F)cc1C(=O)NCc1ccc(-c2ncc(-c3cc4n(n3)CCN(C)C4)c3[nH]nc(N)c23)cc1 [Example 71, N-(4-(3-amino-7-(5-methyl-4,5,6,7-tetrahydropyrazolo[1,5-a]pyrazin-2-yl)-1H-pyrazolo[4,3-c]pyridin-4-yl)benzyl)-5-fluoro-2-methoxybenzamide] | ≤ 1 nM | 5 to 50 nM | 1 to 5 nM | 5 to 50 nM | 50 to 500 nM | 5 to 50 nM
COc1ccc(F)cc1C(=O)NCc1ccc(-c2nc(C(C)C(F)(F)F)c(-c3ncccn3)c3[nH]nc(N)c23)cc1 (single isomer, unassigned) [Example 7-1, N-(4-(3-amino-7-(pyrimidin-2-yl)-6-(1,1,1-trifluoropropan-2-yl)-1H-pyrazolo[4,3-c]pyridin-4-yl)benzyl)-5-fluoro-2-methoxybenzamide] | 1 to 5 nM | 50 to 500 nM | 1 to 5 nM | > 500 nM | > 500 nM | 5 to 50 nM
COc1ccc(F)cc1C(=O)NCc1ccc(-c2ncc(-c3ccn(C)n3)c3[nH]nc(N)c23)cc1 [Example 23, N-(4-(3-amino-7-(1-methyl-1H-pyrazol-3-yl)-1H-pyrazolo[4,3-c]pyridin-4-yl)benzyl)-5-fluoro-2-methoxybenzamide] | ≤ 1 nM | 50 to 500 nM | ≤ 1 nM | 50 to 500 nM | > 500 nM | 5 to 50 nM
